# Test results: patent US20220267260A1, “COMPOUNDS CONTAINING A SULFONIC GROUP AS KAT INHIBITORS” (Epizyme, Inc., priority 2016, published 2022)
# Columns and labels:
# KAT5 = biological target: T1, KAT5 (Homo sapiens, UniProt Q92993); assay: KAT5 enzyme inhibition assay (SAMDI mass spectrometry); format: biochemical; conditions: His-TEV-FL KAT5-Flag enzyme construct
# T1 construct: His-TEV tag (N, cleaved yes); made in house
# KAT6A = biological target: T2, KAT6A (Homo sapiens, UniProt Q92794); assay: KAT6A enzyme inhibition assay (SAMDI mass spectrometry); format: biochemical; conditions: His-TEV-KAT6A 501-784 enzyme construct
# T2 construct: His-TEV tag (N, cleaved yes); made in house
# T2 sequence (Q92794 with tags, fused parts or gaps): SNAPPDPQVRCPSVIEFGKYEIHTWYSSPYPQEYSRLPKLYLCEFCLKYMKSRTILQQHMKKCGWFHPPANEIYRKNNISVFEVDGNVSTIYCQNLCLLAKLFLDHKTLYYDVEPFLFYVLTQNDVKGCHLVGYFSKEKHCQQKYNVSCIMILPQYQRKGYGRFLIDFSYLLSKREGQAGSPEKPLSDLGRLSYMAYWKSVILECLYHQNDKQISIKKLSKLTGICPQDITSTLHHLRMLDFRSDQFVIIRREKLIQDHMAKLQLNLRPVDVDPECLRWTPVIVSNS
# T1 sequence (Q92993 with tags, fused parts or gaps): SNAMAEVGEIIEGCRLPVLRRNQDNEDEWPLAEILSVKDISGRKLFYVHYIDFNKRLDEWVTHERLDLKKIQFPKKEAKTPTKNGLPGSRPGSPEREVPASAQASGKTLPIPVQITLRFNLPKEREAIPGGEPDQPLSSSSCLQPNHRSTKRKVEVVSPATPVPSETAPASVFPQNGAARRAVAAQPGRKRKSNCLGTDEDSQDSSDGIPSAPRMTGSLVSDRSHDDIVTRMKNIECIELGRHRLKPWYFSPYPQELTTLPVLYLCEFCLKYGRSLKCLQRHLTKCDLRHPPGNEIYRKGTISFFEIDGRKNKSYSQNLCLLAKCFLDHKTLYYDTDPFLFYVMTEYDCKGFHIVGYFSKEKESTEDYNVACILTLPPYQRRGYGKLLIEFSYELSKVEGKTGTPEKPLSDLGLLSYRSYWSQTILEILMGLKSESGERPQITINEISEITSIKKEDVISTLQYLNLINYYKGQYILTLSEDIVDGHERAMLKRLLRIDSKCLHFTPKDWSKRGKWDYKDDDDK
SMILES,IC50 (KAT5) [µM],IC50 (KAT6A) [µM]
CCS(=O)(=O)N1CCCC(CS(=O)(=O)NNC(=O)c2cc(-c3cccc(C)c3)cc(Cl)c2F)C1 (stereo not shown) [Compound I-511],≤ 10,> 100
Cc1cccc(-c2cc(Cl)c(F)c(C(=O)NNS(=O)(=O)CC3CCCN(C(=O)C4CCC4)C3)c2)c1 (stereo not shown) [Compound I-512],≤ 10,> 100
Cc1cccc(-c2cc(Cl)c(F)c(C(=O)NNS(=O)(=O)CC3CCCN(C(=O)OC(C)(C)C)C3)c2)c1 (stereo not shown) [Compound I-513],≤ 10,> 100
Cc1cccc(-c2cc(Cl)c(F)c(C(=O)NNS(=O)(=O)CC3CCCNC3)c2)c1 (stereo not shown) [Compound I-514],> 100,> 100
CC(=O)N1CCCC(CS(=O)(=O)NNC(=O)c2cc(-c3cccc(C)c3)cc(Cl)c2F)C1 (stereo not shown) [Compound I-515],≤ 10,> 100
Cc1cccc(-c2cc(Cl)c(F)c(C(=O)NNS(=O)(=O)CC3CCN(C(=O)OC(C)(C)C)C3)c2)c1 (stereo not shown) [Compound I-516],≤ 10,> 100
Cc1cccc(-c2cc(Cl)c(F)c(C(=O)NNS(=O)(=O)CC3CCNC3)c2)c1 (stereo not shown) [Compound I-517],> 100,> 100
CCNC(=O)N1CCC(CS(=O)(=O)NNC(=O)c2cc(-c3cccc(C)c3)cc(Cl)c2F)C1 (stereo not shown) [Compound I-518],> 100,> 100
CCN(C)C(=O)N1CCC(CS(=O)(=O)NNC(=O)c2cc(-c3cccc(C)c3)cc(Cl)c2F)C1 (stereo not shown) [Compound I-519],≤ 10,≤ 10
Cc1ccc(-c2csc(NS(=O)(=O)c3cccc(C(=O)O)c3)n2)cc1C [Compound I-520],> 100,> 100
O=C(NNS(=O)(=O)c1cccc(-c2ccccc2)c1)c1ccccc1 [Compound I-521],> 100,> 100
O=C(NNS(=O)(=O)c1cccc(-c2ccccc2)c1)C1CCCCC1 [Compound I-522],> 100,> 100
O=C(NNS(=O)(=O)c1cc(-c2ccccc2)cc(Cl)c1F)c1ccccc1 [Compound I-523],10 to 50,10 to 50
O=C(NNS(=O)(=O)c1cc(-c2ccccc2)cc(Cl)c1F)C1CCCCC1 [Compound I-524],50 to 100,10 to 50
